The values that follow come from the NIST ThermoML archive (doi:10.1016/j.tca.2010.08.021).

Data set [1] can be described thus: Molar enthalpy of transition or fusion. As to conditions: Crystal; DSC.
For data set [2] the following is noted: Crystal; visual observation.

Numbers after ± are expanded uncertainties.

As to `N#CCCC#N` [butanedinitrile], the “Molar enthalpy of transition or fusion” value in data set [1] was determined as 0.884 ± 0.0478 kcal/mol. Further, the Normal melting temperature in data set [2] turned out to be 57.00 ± 1 °C.

Take `O=[N+]([O-])c1c(Cl)c(Cl)c(Cl)c(Cl)c1Cl` [pentachloronitrobenzene]: in data set [1], the “Molar enthalpy of transition or fusion” value is 4.59 ± 0.143 kcal/mol. The Normal melting temperature in data set [2] was 145.00 ± 1 °C.
